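Tested at 5 concentrations; 48 h exposure; 96-well plates; endpoints linearly interpolated, else capped at highest concentration. GI50 marks 50% less growth.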 Calls of active or inactive are those of the source. No stated cut-off is given here; in the data, active = GI50 up to about 1.1 µM and inactive = higher.
Key:
Assay in all cases: DTP human tumour cell line panel, 48 h
SNB-78 = tested on: SNB-78
XF498 = tested on: XF498
LXFL 529 = tested on: LXFL 529
DMS-114 = tested on: DMS-114
DMS-273 = tested on: DMS-273
DLD-1 = tested on: DLD-1
RXF 631 = tested on: RXF 631
HOP-18 = tested on: HOP-18
KM-20L2 = tested on: KM-20L2

SMILES | GI50 (SNB-78) | GI50 (XF498) | GI50 (LXFL 529) | GI50 (DMS-114) | GI50 (DMS-273) | GI50 (DLD-1) | GI50 (RXF 631) | GI50 (HOP-18) | GI50 (KM-20L2)
Clc1ccc(OCc2nnc3n2N=C(c2ccccc2)CS3)c(Cl)c1 | 9.42 µM (inactive) | > 100 µM (inactive) | 5.6 µM (inactive) | > 100 µM (inactive) | 5.56 µM (inactive) | 7.26 µM (inactive) | – | – | –
N#CCC(=O)Nc1cccc(C(F)(F)F)c1 | > 100 µM (inactive) | > 100 µM (inactive) | > 100 µM (inactive) | – | > 100 µM (inactive) | > 100 µM (inactive) | > 100 µM (inactive) | 29.2 µM (inactive) | > 100 µM (inactive)
CC(=O)C1=NN(c2ccccc2)C2(S1)SC(c1ccccc1)(c1ccccc1)c1ccccc12 (stereo not drawn) | 30.8 µM (inactive) | – | 15.2 µM (inactive) | 32.5 µM (inactive) | 17.6 µM (inactive) | 61.4 µM (inactive) | – | > 100 µM (inactive) | > 100 µM (inactive)
C/C(=N\NC(=S)N1CC2CCC(CC2)C1)c1nccs1 | 10.3 µM (inactive) | 2.3 µM (inactive) | 0.0201 µM (active) | < 0.0148 µM (active) | 0.127 µM (active) | 0.0423 µM (active) | 0.518 µM (active) | 0.327 µM (active) | < 0.01 µM (active)
COC(=O)CC(NC(=O)OCc1ccccc1)C(C(=O)OCc1ccccc1)C(C)(OC)OC (stereo not drawn) | – | 14.1 µM (inactive) | 5.69 µM (inactive) | 22.8 µM (inactive) | 33.3 µM (inactive) | 20.9 µM (inactive) | – | – | 45.4 µM (inactive)
CC(C)C1=CC(=O)C(C)(C2=NC(C)(C)CO2)c2ccccc21 (stereo not drawn) | – | > 100 µM (inactive) | 94.4 µM (inactive) | 51.4 µM (inactive) | > 100 µM (inactive) | > 100 µM (inactive) | 95.7 µM (inactive) | 34.6 µM (inactive) | > 100 µM (inactive)
C#C[C@@H](CCCC)OC(=O)N[C@H](C)c1ccccc1 | 94.6 µM (inactive) | 66.8 µM (inactive) | 43.1 µM (inactive) | 25.1 µM (inactive) | 37.2 µM (inactive) | 59.4 µM (inactive) | 45.6 µM (inactive) | > 100 µM (inactive) | 51.8 µM (inactive)
CCCCCCCCCCCCCC(=O)NCO | > 100 µM (inactive) | > 100 µM (inactive) | > 100 µM (inactive) | > 100 µM (inactive) | – | > 100 µM (inactive) | > 100 µM (inactive) | > 100 µM (inactive) | > 100 µM (inactive)
CCCP1(=O)C=C(C)C(=C(Cl)Cl)C(C)=C1 (stereo not drawn) | 57.3 µM (inactive) | – | 30.1 µM (inactive) | 36.1 µM (inactive) | – | 67.3 µM (inactive) | – | > 100 µM (inactive) | 18.3 µM (inactive)
CC/C=C\C/C=C\C1CC(=O)NCCCNCCCCN1 (stereo not drawn) | > 100 µM (inactive) | – | > 100 µM (inactive) | > 100 µM (inactive) | > 100 µM (inactive) | > 100 µM (inactive) | – | – | > 100 µM (inactive)
CCCCCCCCCCCC(=O)OCCOCCOCCOCCOCCOCc1ccccc1 | > 100 µM (inactive) | – | > 100 µM (inactive) | > 100 µM (inactive) | > 100 µM (inactive) | > 100 µM (inactive) | – | > 100 µM (inactive) | > 100 µM (inactive)
O=[N+]([O-])c1cc(-c2nnc(S)[nH]2)ccc1O | > 100 µM (inactive) | – | > 100 µM (inactive) | 32.4 µM (inactive) | 67.6 µM (inactive) | > 100 µM (inactive) | > 100 µM (inactive) | – | > 100 µM (inactive)
COc1cc2c(cc1OC)C(Cl)C(c1ccc(F)cc1)=C2Cl (stereo not drawn) | 15.4 µM (inactive) | – | 11.7 µM (inactive) | 13.2 µM (inactive) | 16.4 µM (inactive) | 16.9 µM (inactive) | – | 15.2 µM (inactive) | 14.8 µM (inactive)
O=C1C2=C(c3ccccc31)C(c1ccc([N+](=O)[O-])cc1)NC(S)=N2 (stereo not drawn) | – | 31.5 µM (inactive) | 41 µM (inactive) | 36.8 µM (inactive) | 59.4 µM (inactive) | 69 µM (inactive) | > 100 µM (inactive) | – | > 100 µM (inactive)
O=CC[C@H]1C(=O)C[C@@H]2CCC[C@@H]21 | > 100 µM (inactive) | > 100 µM (inactive) | 48 µM (inactive) | – | – | – | – | – | –
Cc1nnc2c3nnc(C)n3c3ccccc3n12 | > 100 µM (inactive) | > 100 µM (inactive) | > 100 µM (inactive) | > 100 µM (inactive) | > 100 µM (inactive) | > 100 µM (inactive) | – | – | > 100 µM (inactive)
Cc1c(Cl)ccc2c1NC(=O)C2(O)C(C(=O)c1ccccc1)c1ccccc1 (stereo not drawn) | > 100 µM (inactive) | 32.7 µM (inactive) | 57.3 µM (inactive) | 21.9 µM (inactive) | 51.5 µM (inactive) | 83.9 µM (inactive) | 62.2 µM (inactive) | 52.4 µM (inactive) | 46 µM (inactive)
COc1c(C)n(CCO)ccc1=O | > 100 µM (inactive) | > 100 µM (inactive) | > 100 µM (inactive) | > 100 µM (inactive) | > 100 µM (inactive) | > 100 µM (inactive) | > 100 µM (inactive) | – | > 100 µM (inactive)
COc1ccc(N2C(=O)C3c4[nH]c5ccccc5c4C4CC(C)(C)CC(C)(C)C4C3C2=O)cc1 (stereo not drawn) | 21.4 µM (inactive) | 17.6 µM (inactive) | 13.3 µM (inactive) | 27.2 µM (inactive) | 11 µM (inactive) | 27 µM (inactive) | – | 16.7 µM (inactive) | 29.3 µM (inactive)
Cc1ccc(NC(=O)C(=O)Cc2cccc[n+]2[O-])cc1C | > 100 µM (inactive) | > 100 µM (inactive) | > 100 µM (inactive) | > 100 µM (inactive) | – | > 100 µM (inactive) | – | > 100 µM (inactive) | > 100 µM (inactive)
c1cnc2c(c1)-n1cccc1C1(CCSCC1)NN2 | – | > 100 µM (inactive) | – | – | > 100 µM (inactive) | – | – | 26 µM (inactive) | –
CC(=O)Nc1ccc(S(=O)(=O)N/N=C(\C)CN2C(=O)c3ccccc3C2=O)cc1 | > 100 µM (inactive) | – | > 100 µM (inactive) | – | > 100 µM (inactive) | > 100 µM (inactive) | – | > 100 µM (inactive) | > 100 µM (inactive)
O=C1/C(=C/c2ccc(Cl)cc2)COc2ccc(Br)cc21 | > 100 µM (inactive) | 69 µM (inactive) | > 100 µM (inactive) | > 100 µM (inactive) | > 100 µM (inactive) | > 100 µM (inactive) | > 100 µM (inactive) | 11.6 µM (inactive) | > 100 µM (inactive)
CCOC(=O)COc1ccc(OCC(=O)OCC)c2c1C(=O)CCCC2=O | – | > 100 µM (inactive) | > 100 µM (inactive) | > 100 µM (inactive) | > 100 µM (inactive) | > 100 µM (inactive) | – | > 100 µM (inactive) | > 100 µM (inactive)
COc1ccc2nc(-c3cccs3)cc(C(O)CN3CCSCC3)c2c1 (stereo not drawn) | – | 16.3 µM (inactive) | 12.6 µM (inactive) | 12.2 µM (inactive) | 19.5 µM (inactive) | 23.6 µM (inactive) | – | 19.8 µM (inactive) | 21.6 µM (inactive)
CN1CC[C@@H](c2c(O)cc(O)c3c(=O)cc(-c4ccccc4Cl)oc23)[C@@H](O)C1 | 0.213 µM (active) | 0.149 µM (active) | 0.124 µM (active) | 0.113 µM (active) | 0.109 µM (active) | 0.0528 µM (active) | – | 0.0562 µM (active) | 0.174 µM (active)
NC(=O)CCC(NC(=O)C(F)(F)F)C(=O)O (stereo not drawn) | > 100 µM (inactive) | > 100 µM (inactive) | > 100 µM (inactive) | > 100 µM (inactive) | > 100 µM (inactive) | > 100 µM (inactive) | – | > 100 µM (inactive) | > 100 µM (inactive)
CC(C)C(=O)NC(=S)Nc1ccc([N+](=O)[O-])cc1C#N | > 100 µM (inactive) | > 100 µM (inactive) | > 100 µM (inactive) | > 100 µM (inactive) | > 100 µM (inactive) | > 100 µM (inactive) | 99.1 µM (inactive) | > 100 µM (inactive) | > 100 µM (inactive)
Cc1ccc(NC(=O)CC/C(CC(=O)c2ccc(F)cc2)=N\NC(=O)C(=O)NN)cc1C | > 100 µM (inactive) | – | > 100 µM (inactive) | > 100 µM (inactive) | > 100 µM (inactive) | > 100 µM (inactive) | > 100 µM (inactive) | > 100 µM (inactive) | > 100 µM (inactive)

— ChEMBL document CHEMBL1201862, “PubChem BioAssay data set” (2004)
